Assay results: patent US20230405151A1, “USE OF IRAK4 MODULATORS FOR GENE THERAPY” (Genzyme Corporation, priority 2022, published 2023)

Columns and labels:
[1] = tested on: Human monocytic dendritic cells infected with AAV.SAN024; experiment: Cytokine release (Meso Scale Discovery) from dendritic cells treated with IRAK4 modulators and infected with AAV; type: cell-based; conditions: for AAV-induced secretion of IL1b cytokine from dendritic cells: 80 nM, all doses
Procedure: Preparation of peripheral blood mononuclear cells. Blood from leukopaks (Stem cell technologies) from different donors was decanted into 50 mL tubes and Dulbecco's phosphate buffered saline (DPBS) was added at a 1:1 ratio. The blood plus DBPS mix was gently pipetted into a separate 50 mL tube containing 15 mL Ficoll (GE17-5442-02) to ensure no mixing of the blood and Ficoll phases. The mixture was centrifuged at 2000 RPM for 25 minutes at room temperature (9 acceleration and no braking). The buffy coat containing the peripheral blood mononuclear cells (PBMCs) was collected, transferred to a new tube, and centrifuged for five minutes at 400 RCF. PBMCs were washed three times with phosphate buffered saline (PBS) containing 1% fetal bovine serum (FBS) or fetal calf serum (FCS) and counted.
Isolation of monocytes. CD14+ monocytes were isolated from the PBMCs using CD14 MicroBeads following the manufacturer's protocol (Miltenyi Biotech, Germany, order no. 130-050-201, protocol available online world wide web miltenyibiotec.com/upload/assets/IM0001260.PDF). Briefly, PBMCs were incubated with 20 μL of CD14 MicroBeads per 10^7 total cells for 15 minutes at 2-8° C. PBMCs were applied onto a magnetic column (Miltenyi; world wide web miltenyibiotec.com/US-en/products/ls-columns.html#130-042-401) and unlabeled cells were allowed to pass through. After washing the column three times, the column was removed from the magnetic separator, (Miltneyi; world wide web miltenyibiotec.com/US-en/products/quadromacs-separator-and-starting-kits.html#130-091-051) placed on a collection tube, and magnetically labeled CD14+ monocytes were flushed out by pushing a plunger into the column.
Differentiation of monocytes. CD14+ monocytes were differentiated into dendritic cells using ImmunoCult-ACF Dendritic Cell Media, Differentiation Supplement, and Maturation Supplement (Stem Cell Technologies, catalog #10986, #10988, and #10989; world wide web cdn.stemcell.com/media/Files/pis/DX20521-PIS_1_2_0.pdf?_ga=2.81451927.1035383195.1642105700-1174975582.1603298321) following the manufacturer's protocol available online. Briefly, purified CD14+ monocytes were added to Dendritic Cell Media containing the Differentiation Supplement and incubated at 37° C. for three days. On day 3, media was replaced with fresh Dendritic Cell media containing Differentiation Supplement and cells were incubated for two additional days. On day 5, Maturation Supplement was added to the cells at a 1 to 100 dilution (e.g. 50 μL supplement per 5 mL culture). Differentiated dendritic cells were harvested on day 7.
rAAV production and titration. rAAV vectors (AAV.SAN024 and AAV.SAN029) were produced using a standard triple transfection method (Sena-Esteves and Gao, Cold Spring Harb Protoc; doi:10.1101/pdb.top095513, 2020). All serotypes tested encode the same GFP transgene. Viruses were purified by cesium chloride ultracentrifugation and titrated using both silver staining and quantitative polymerase chain reaction (qPCR).
IRAK4 targeting drugs and AAV Treatments. Dendritic cells were plated in 96 well plates with 200,000 cells per well. Each treatment was performed in triplicates. Cells were treated with zimlovisertib IRAK4 inhibitor (Synonyms: PF-06650833) Cat. No.: HY-19836 (MedChemExpress) and PROTAC IRAK4 degrader-1 Cat. No.: HY-129966 (MedChemExpress) at 16 nm, 80 nm, 400 nm and 2000 nm for 18 hrs at 37° C., 5% CO2 in an incubator. […] The cells were incubated at 37° C., 5% CO2 in an incubator for 24 hours. After 24 hours, plates were centrifuged and media supernatant was collected. The clarified media was analyzed by Meso Scale Discovery MSD (world wide web mesoscale.com/products/v-plex-proinflammatory-panel-1-human-kit-k15049d/) performed by DC3 therapeutics https://www.dc3therapeutics.com/services. The experiment outline of PBMC isolation, monocyte purification and dendritic cell differentiation is illustrated in FIG. 1. […]

[2] = tested on: Human monocytic dendritic cells; experiment: LDH release assay (cell cytotoxicity); type: cell-based; conditions: 16 nM, 80 nM, 400 nM and 2000 nM with AAV.SAN024 MOI 1e5 24 hrs, versus untreated/uninfected cells
Procedure: IRAK4 targeting drugs and AAV Treatments. Dendritic cells were plated in 96 well plates with 200,000 cells per well. Each treatment was performed in triplicates. Cells were treated with zimlovisertib IRAK4 inhibitor (Synonyms: PF-06650833) Cat. No.: HY-19836 (MedChemExpress) and PROTAC IRAK4 degrader-1 Cat. No.: HY-129966 (MedChemExpress) at 16 nm, 80 nm, 400 nm and 2000 nm for 18 hrs at 37° C., 5% CO2 in an incubator. After pre-treatment of 18 hrs with the drugs, AAV vectors at 1e5 MOI were used. The cells were incubated at 37° C., 5% CO2 in an incubator for 24 hours. After 24 hours, plates were centrifuged and media supernatant was collected. The clarified media was analyzed by Meso Scale Discovery MSD (world wide web mesoscale.com/products/v-plex-proinflammatory-panel-1-human-kit-k15049d/) performed by DC3 therapeutics https://www.dc3therapeutics.com/services. […]
LDH Release Assay. Cell cytotoxicity was measured by release of lactate dehydrogenase (LDH) in media supernatants. LDH was quantified using Promega kit (Catalog #G1780) as per manufacturer's protocol. […] Stop Solution was added, and the absorbance signal is measured at 490 nm in a plate reader. https://www.promega.com/products/cell-health-assays/cell-viability-and-cytotoxicity-assays/cytotox-96-non_radioactive-cytotoxicity-assay/?catNum=G1780#protocols […]

[3] = co-treated with 16 nM, 400 nM and 2000 nM and AAV.SAN024 MOI 1e5 at the same time, 24 hrs
[4] = co-treated with 16-2000 nM and AAV.SAN024 MOI 1e5, 24 hrs
[5] = pre-treated 18 hrs with 16 nM, 400 nM and 2000 nM, then AAV.SAN024 MOI 1e5 24 hrs, three donors
[6] = pre-treated 18 hrs with 16-2000 nM, then AAV.SAN024 MOI 1e5 24 hrs

SMILES | AAV-induced secretion of IL1b cytokine from dendritic cells [1, 3] | AAV-induced IL6 release from dendritic cells [1, 4] | AAV-induced TNFα release from dendritic cells [1, 4] | AAV-induced secretion of IL1b cytokine from dendritic cells [1, 5] | AAV-induced IL6 release from dendritic cells [1, 6] | AAV-induced TNFα release from dendritic cells [1, 6] | Cellular toxicity (LDH release in media supernatants) [2]
CC[C@@H]1[C@H](F)C(=O)N[C@@H]1COc1nccc2cc(C(N)=O)c(OC)cc12 [zimlovisertib, 1-[[(2S,3S,4S)-3-Ethyl-4-fluoro-5-oxo-2-pyrrolidinyl]methoxy]-7-methoxy-6-isoquinolinecarboxamide] | blocked | Cytokine block was also observed | Cytokine block was also observed | blocked | Cytokine block was also observed | Cytokine block was also observed | no cellular toxicity
O=C1CCC(N2C(=O)c3cccc(NCc4cn(CCCNC(=O)c5ccc(-n6cc(NC(=O)c7coc(-c8ccnc(NCC9CC9)c8)n7)c(C(F)(F)F)n6)cc5)cn4)c3C2=O)C(=O)N1 (centres unmarked) [PROTAC IRAK4 degrader-1] | blocked | Cytokine block was also observed | Cytokine block was also observed | blocked | Cytokine block was also observed | Cytokine block was also observed | no cellular toxicity
